These are literature values, as cited in patent publication US6506390B2, “Progestogen-anti-progestogen regimens” (Akzo Nobel, priority 1996, dated 2003).

For data set [1] the following is noted: based on practically applied doses; for relative potency in progestogenic activity: levonorgestrel, desogestrel and 3-keto-desogestrel compared with each other.
The conditions of data set [2]: as an approximation.

Take `C#C[C@]1(O)CC[C@H]2[C@@H]3CCC4=CCCC[C@@H]4[C@H]3C(=C)C[C@@]21CC` [desogestrel, 13-ethyl-11-methylene-18,19-di-nor-17α-pregn-4-en-20-yn-17-ol]: the “relative potency in progestogenic activity” value in data set [1] is “relatively equipotent”.

For the compound `C#C[C@]1(O)C=C[C@H]2[C@@H]3CCC4=CC(=O)CC[C@@H]4[C@H]3CC[C@@]21CC` [Gestodene, gestodene], in data set [1] (progestogenic activity), the “potency relative to levonorgestrel, desogestrel and 3-keto-desogestrel” value was “approximately 1.5 times”. On to `C#CC1(O)CC[C@H]2[C@@H]3CCC4=CC(=O)CC[C@@H]4[C@H]3CC[C@@]21CC` (some centres unmarked) [Norgestrel, norgestrel], for which the “potency relative to levonorgestrel” value in data set [1] (progestogenic activity) is “about one-half”. `C#C[C@]1(O)CC[C@H]2[C@@H]3CCc4cc(OC)ccc4[C@H]3CC[C@@]21C` [mestranol, 17-α-ethinyl estradiol 3-methylether]: in data set [2], the “amount equivalent in estrogenic activity to 1 mg of 17β-estradiol” value was roughly 0.030 mg. As to `C#C[C@]1(O)CC[C@H]2[C@@H]3CCC4=CC(=O)CC[C@@H]4[C@H]3C(=C)C[C@@]21CC` [3-keto-desogestrel], the “relative potency in progestogenic activity” value in data set [1] was “relatively equipotent”.
